The values that follow come from ChEMBL document CHEMBL4673353, “Switching a Xanthine Oxidase Inhibitor to a Dual-Target Antagonist of P2Y and P2Y as an Oral Antiplatelet Agent with a Wider Therapeutic Window in Rats than Ticagrelor” (J Med Chem, 2020).

Data set [1] in a line: Metabolic stability of compound in human liver microsomes assessed as intrinsic clearance per mg protein at 0.2 uM in presence of NADPH measured up to 90 mins by LC-MS/MS analysis. Format: ADME, Microsome. As to conditions: 1.5 h.
The nature of data set [2]: Oral bioavailability in male Sprague-Dawley rat at 10 mg/kg administered as single dose by LC-MS analysis. The conditions noted are these: in vivo. The data set is classed as ADME, organism-based.
Data set [3] concerns Rattus norvegicus. Description: Antithrombotic activity in FeCl3-induced Sprague-Dawley rat model of arterial thrombosis assessed as reduction in thrombus weight at 20 mg/kg, po qd administered as single dose for 7 days and measured 2 hrs post last dose. Format: functional. Also noted: scale not given: the % may be the effect or the level left. As to conditions: time 7 day.

Data set [4] in a line: Acute toxicity in Kunming mouse assessed as increase in body weight at 2000 mg/kg, ig administered as single dose monitored every day up to14 days. The data set is classed as organism-based. As to conditions: in vivo, po, 336 h, time 14 day.
The nature of data set [5]: Acute toxicity in Kunming mouse assessed as behavioral abnormalities at 2000 mg/kg, ig administered as single dose monitored every day up to14 days. The data set is classed as organism-based. The conditions noted are these: in vivo, po, 336 h, time 14 day.
Data set [6] can be described thus: Solubility of compound. The data set is classed as physicochemical.
The subject of data set [7] is Rattus norvegicus. The experiment in a line: Antithrombotic activity in FeCl3-induced Sprague-Dawley rat model of arterial thrombosis assessed as reduction in thrombus weight at 5 mg/kg, po qd administered as single dose for 7 days and measured 2 hrs post last dose. The data set is classed as functional. Also noted: scale not given: the % may be the effect or the level left. The conditions noted are these: time 7 day.

Data set [8] in a line: Toxicity in Sprague-Dawley rat model of tail-snip bleeding assessed as increase in bleeding time at 10 mg/kg, po administered via gavage as single dose measured within 2 hrs post tail snip relative to control. The data set is classed as organism-based. As to conditions: in vivo.
The nature of data set [9]: Drug metabolism in human liver microsome assessed as 1-[(4-Cyanobenzyl)oxy]-2-(3-cyanophenyl)-4-methyl-1H-imidazole-5-carboxylic acid formation at 0.2 uM in presence of NADPH measured up to 90 mins by LC-MS/MS analysis. The data set is classed as ADME. As to conditions: microsomes, 1.5 h.
Data set [10] can be described thus: Toxicity in Sprague-Dawley rat model of tail snip bleeding assessed as bleeding weight at 10 mg/kg, po administered via gavage as single dose measured within 2 hrs post tail snip(reference value: 0.08 g). As to conditions: in vivo. Format: organism-based.
The next data set has as its target T1, Cytochrome P450 2A6 (Homo sapiens, UniProt P11509).
T1 sequence (P11509 whole entry): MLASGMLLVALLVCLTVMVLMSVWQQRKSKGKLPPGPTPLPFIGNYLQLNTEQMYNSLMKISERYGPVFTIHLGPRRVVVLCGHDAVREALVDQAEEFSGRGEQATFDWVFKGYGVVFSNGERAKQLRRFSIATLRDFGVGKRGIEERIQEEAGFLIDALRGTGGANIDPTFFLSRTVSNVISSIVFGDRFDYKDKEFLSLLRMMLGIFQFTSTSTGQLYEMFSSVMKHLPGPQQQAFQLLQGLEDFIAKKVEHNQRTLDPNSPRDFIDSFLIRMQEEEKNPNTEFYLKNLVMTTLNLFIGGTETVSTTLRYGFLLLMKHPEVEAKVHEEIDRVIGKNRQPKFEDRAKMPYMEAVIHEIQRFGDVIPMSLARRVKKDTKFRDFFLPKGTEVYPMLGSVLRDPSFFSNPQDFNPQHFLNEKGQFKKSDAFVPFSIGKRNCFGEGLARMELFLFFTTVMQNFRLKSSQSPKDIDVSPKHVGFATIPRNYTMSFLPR
The experiment in a line: Inhibition of CYP2A6 in human liver microsomes using coumarin as substrate preincubated for 5 mins followed by NADPH generating system addition and measured after 120 mins by LC-MS/MS. The data set is classed as ADME. On the technique in general: Liver microsomes are a subcellular fraction often used to study metabolism.

Data set [11] addresses Xanthine dehydrogenase/oxidase (Bos taurus, UniProt P80457). The experiment in a line: Inhibition of bovine xanthine oxidase assessed as reduction in uric acid formation at 10 uM using xanthine as substrate preincubated for 15 mins followed by substrate addition measured at 30 sec interval for upto 2 mins by spectrophotometric analysis relative to control. As to conditions: cattle, time 17 min.

A short description of data set [12]: Tmax in male Sprague-Dawley rat at 10 mg/kg, iv administered as single dose by LC-MS analysis. Format: ADME, organism-based. The conditions noted are these: in vivo.
The nature of data set [13]: AUC (0 to infinity) in male Sprague-Dawley rat at 10 mg/kg, iv administered as single dose by LC-MS analysis. Format: ADME, organism-based. Also noted: time infinity, route intravenous, dose 10 mg/kg. As to conditions: in vivo.
Data set [14] in a line: Stability of compound in rat plasma assessed as compound degradation at 10 uM incubated up to 45 mins by HPLC analysis. Format: ADME, cell-free. As to conditions: 0.75 h.
Data set [15] can be described thus: Elimination half-life in male Sprague-Dawley rat at 10 mg/kg, iv administered as single dose by LC-MS analysis. Format: ADME, organism-based. As to conditions: in vivo, read-out: beta t1/2 (converted).
The next data set concerns the target Cytochrome P450 2E1 (Homo sapiens, UniProt P05181). The experiment in a line: Inhibition of CYP2E1 in human liver microsomes using chlorzoxazone as substrate preincubated for 5 mins followed by NADPH generating system addition and measured after 120 mins by LC-MS/MS. The data set is classed as ADME.
Data set [16] in a line: Cmax in male Sprague-Dawley rat at 10 mg/kg, iv administered as single dose by LC-MS analysis. The data set is classed as ADME, organism-based. The arrangement: route intravenous, dose 10 mg/kg. The conditions noted are these: in vivo.
The next data set addresses Cytochrome P450 2C19 (Homo sapiens, UniProt P33261). The experiment in a line: Inhibition of CYP2C19 in human liver microsomes using S-mephenytoin as substrate preincubated for 5 mins followed by NADPH generating system addition and measured after 120 mins by LC-MS/MS. The data set is classed as ADME.
A short description of data set [17]: Stability of compound in rabbit plasma assessed as compound degradation at 10 uM incubated up to 45 mins by HPLC analysis. As to conditions: 0.75 h. Format: ADME, cell-free, Oryctolagus cuniculus.
In a further data set the target is Cytochrome P450 2C9 (Homo sapiens, UniProt P11712). Description: Inhibition of CYP2C9 in human liver microsomes using tolbutamide as substrate preincubated for 5 mins followed by NADPH generating system addition and measured after 120 mins by LC-MS/MS. Format: ADME.
Sequence of Cytochrome P450 2C9 (P11712 whole entry): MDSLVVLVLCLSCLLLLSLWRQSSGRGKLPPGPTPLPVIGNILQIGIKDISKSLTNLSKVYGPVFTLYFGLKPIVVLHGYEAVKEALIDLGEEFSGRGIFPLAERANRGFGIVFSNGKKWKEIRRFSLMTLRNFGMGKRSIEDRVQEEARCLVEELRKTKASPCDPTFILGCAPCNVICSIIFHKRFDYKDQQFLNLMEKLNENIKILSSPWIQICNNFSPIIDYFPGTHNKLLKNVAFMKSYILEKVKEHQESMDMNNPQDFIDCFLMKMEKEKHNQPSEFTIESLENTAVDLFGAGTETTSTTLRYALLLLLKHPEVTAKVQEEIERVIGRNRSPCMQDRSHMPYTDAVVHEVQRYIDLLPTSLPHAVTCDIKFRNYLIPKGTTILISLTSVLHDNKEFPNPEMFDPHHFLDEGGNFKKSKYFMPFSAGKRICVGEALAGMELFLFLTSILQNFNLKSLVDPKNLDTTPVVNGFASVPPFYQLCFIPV
The target in the next data set is P2Y purinoceptor 12 (Homo sapiens, UniProt Q9H244). The experiment in a line: Antagonist activity at P2Y12 in human whole blood assessed as suppression of ADP-induced decrease in PGE1-induced VASP phosphorylation measured after 10 mins by immunostaining based flow cytometric analysis. Format: tissue-based. In general terms: A flow cytometer gives signals particle by particle.
Sequence of P2Y purinoceptor 12 (Q9H244 whole entry): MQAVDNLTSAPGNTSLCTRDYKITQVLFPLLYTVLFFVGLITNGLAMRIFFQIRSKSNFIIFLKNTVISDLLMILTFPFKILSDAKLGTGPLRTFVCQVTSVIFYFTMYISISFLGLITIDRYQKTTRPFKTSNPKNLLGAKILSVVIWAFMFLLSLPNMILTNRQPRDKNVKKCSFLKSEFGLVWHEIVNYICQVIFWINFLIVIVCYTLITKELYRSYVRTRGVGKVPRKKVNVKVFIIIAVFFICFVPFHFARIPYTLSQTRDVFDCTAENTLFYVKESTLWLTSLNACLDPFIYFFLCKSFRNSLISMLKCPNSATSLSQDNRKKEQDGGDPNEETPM

Another data set deals with T2, Cytochrome P450 1A2 (Homo sapiens, UniProt P05177).
T2 sequence (P05177 whole entry): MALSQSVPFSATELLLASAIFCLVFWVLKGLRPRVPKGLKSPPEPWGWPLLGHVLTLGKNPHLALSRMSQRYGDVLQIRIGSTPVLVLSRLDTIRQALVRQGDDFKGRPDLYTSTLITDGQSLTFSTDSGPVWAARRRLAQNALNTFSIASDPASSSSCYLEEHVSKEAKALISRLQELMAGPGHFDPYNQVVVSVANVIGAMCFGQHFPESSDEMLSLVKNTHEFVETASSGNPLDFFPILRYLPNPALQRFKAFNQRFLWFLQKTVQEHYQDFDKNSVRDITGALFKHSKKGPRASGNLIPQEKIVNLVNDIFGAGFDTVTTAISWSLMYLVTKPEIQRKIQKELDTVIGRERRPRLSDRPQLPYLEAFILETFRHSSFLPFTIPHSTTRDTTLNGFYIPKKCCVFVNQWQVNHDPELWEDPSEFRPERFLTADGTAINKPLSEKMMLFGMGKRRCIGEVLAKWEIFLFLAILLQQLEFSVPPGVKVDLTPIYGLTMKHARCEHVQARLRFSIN
Description: Inhibition of CYP1A2 in human liver microsomes using phenacetin as substrate preincubated for 5 mins followed by NADPH generating system addition and measured after 120 mins by LC-MS/MS. Format: ADME.

Some results are limits rather than exact numbers.

Sequence of Xanthine dehydrogenase/oxidase (P80457 whole entry): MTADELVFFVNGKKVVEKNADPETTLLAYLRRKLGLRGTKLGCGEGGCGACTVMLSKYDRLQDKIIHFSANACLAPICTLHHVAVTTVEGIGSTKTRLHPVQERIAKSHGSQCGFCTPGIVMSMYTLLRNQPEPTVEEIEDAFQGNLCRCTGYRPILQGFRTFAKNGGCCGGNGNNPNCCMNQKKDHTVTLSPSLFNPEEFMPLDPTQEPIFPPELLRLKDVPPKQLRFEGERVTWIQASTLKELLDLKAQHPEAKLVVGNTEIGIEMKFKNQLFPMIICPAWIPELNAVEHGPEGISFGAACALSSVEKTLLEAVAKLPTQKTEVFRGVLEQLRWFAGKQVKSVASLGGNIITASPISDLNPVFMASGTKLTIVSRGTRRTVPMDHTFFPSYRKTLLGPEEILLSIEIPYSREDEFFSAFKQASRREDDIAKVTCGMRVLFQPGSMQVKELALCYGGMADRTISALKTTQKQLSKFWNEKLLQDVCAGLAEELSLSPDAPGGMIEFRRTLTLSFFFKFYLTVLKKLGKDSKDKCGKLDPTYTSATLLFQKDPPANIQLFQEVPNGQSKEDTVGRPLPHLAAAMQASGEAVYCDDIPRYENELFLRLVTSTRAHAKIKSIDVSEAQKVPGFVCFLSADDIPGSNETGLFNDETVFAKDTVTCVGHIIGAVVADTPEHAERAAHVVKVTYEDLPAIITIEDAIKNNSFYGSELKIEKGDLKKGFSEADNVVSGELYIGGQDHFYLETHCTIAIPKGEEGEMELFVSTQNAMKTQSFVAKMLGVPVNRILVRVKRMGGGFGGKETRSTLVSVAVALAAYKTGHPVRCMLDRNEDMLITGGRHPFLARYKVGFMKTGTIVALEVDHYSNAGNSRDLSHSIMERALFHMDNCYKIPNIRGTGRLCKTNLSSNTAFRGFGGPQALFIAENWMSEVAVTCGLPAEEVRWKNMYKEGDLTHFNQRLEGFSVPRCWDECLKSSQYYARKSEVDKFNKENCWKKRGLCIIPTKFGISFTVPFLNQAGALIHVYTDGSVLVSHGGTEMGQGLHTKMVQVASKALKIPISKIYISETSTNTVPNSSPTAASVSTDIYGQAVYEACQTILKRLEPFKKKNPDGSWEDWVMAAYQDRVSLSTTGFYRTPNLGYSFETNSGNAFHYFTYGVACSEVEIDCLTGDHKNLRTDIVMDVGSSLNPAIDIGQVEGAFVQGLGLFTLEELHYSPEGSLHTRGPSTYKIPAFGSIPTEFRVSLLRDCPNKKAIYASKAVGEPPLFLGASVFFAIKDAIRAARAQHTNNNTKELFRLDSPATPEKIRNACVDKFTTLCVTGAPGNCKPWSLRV
Sequence of Cytochrome P450 2C19 (P33261 whole entry): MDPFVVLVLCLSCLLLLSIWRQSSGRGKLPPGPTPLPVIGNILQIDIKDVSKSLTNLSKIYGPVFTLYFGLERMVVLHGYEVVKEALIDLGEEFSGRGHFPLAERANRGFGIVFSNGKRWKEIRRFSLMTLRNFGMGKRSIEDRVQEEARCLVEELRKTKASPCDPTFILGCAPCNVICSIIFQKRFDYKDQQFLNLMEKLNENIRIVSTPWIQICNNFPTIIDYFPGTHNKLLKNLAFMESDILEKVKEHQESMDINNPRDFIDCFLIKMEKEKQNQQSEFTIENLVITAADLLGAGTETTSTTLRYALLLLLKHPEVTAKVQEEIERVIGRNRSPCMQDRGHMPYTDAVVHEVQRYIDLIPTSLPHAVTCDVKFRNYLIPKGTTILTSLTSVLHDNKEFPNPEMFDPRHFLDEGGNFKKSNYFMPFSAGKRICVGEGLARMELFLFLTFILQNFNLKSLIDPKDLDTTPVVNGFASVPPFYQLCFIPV
Sequence of Cytochrome P450 2E1 (P05181 whole entry): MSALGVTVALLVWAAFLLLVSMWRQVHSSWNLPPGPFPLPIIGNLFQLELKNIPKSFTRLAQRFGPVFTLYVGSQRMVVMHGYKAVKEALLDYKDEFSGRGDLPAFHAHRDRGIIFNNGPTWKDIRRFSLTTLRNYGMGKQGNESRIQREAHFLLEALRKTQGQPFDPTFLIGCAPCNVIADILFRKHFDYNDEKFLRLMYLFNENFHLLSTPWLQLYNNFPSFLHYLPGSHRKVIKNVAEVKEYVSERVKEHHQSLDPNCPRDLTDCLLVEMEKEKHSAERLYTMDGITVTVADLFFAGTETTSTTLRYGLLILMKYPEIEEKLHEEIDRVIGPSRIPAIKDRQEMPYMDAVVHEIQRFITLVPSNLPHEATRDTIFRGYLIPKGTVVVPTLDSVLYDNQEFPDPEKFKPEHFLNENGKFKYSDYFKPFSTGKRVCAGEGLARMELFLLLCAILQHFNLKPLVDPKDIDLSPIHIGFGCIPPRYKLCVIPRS

In the case of `CCOC(=O)c1c(C)nc(-c2cccc(C#N)c2)n1OCc1ccc(C#N)cc1`, the CLH in data set [1] is 0.011 mL/min. Also, the bioavailability – broadly, the share of a dose that reaches the circulation, judged against a reference dose that is usually intravenous – in data set [2] came to 32.4%. For the same compound, the Activity with Rattus norvegicus [3] is 46.7%; in data set [4], “Non-Toxic”; in data set [5] it was “Non-Toxic”; in the data set on Rattus norvegicus [7], 22.6%; in [10], 0.4 g. Also, the solubility entry in data set [6] was “Insoluble”. The “fold change (FC)” value in data set [8] was determined as 1.92. For the same compound, in data set [9], the Drug metabolism result is recorded as “Metabolite_Detected”.
In the case of `Cc1nc(-c2cccc(C#N)c2)n(OCc2ccc(C#N)cc2)c1C(=O)O`, the IC50 (usually the concentration at which inhibition is half-maximal) against Cytochrome P450 2A6 was over 10 µM; against Cytochrome P450 2E1 it was over 10 µM; at Cytochrome P450 2C19, over 10 µM; against Cytochrome P450 2C9, over 10 µM; at P2Y purinoceptor 12, 149 µM; against Cytochrome P450 1A2 it was over 10 µM. Further, in data set [11], the inhibition (in general, how much of the control response was suppressed) at 10 µM is under 50%. In addition, the Tmax (as a rule, the time from dosing to the highest level) in data set [12] amounted to 8.4 min. Further, the AUC(0-inf) – broadly, total exposure, with the tail of the curve extrapolated – in [13] worked out at 3.5 µg·h/mL. Moreover, the Stabilty entry in data set [14] and in data set [17] was “Stable” throughout. Moreover, in [15], the half-life was 4.89 h. Moreover, in data set [16], the concentration peaked (Cmax) at 11.2 µg/mL.
